Assay results reported in patent US11058654B2, “Compositions and methods for the treatment of hemoglobinopathies and thalassemias” (AXCELLA HEALTH INC., priority 2018, dated 2021).

Columns and labels:
IL-6 = assay: LPS-induced IL-6 secretion in primary human PBMC-derived macrophages (ELISA); assay type: cell-based; conditions: for effect on LPS-induced IL-6 secretion: in words
Experimental: (§1) Unpurified buffy coats (Research Blood Components) were carefully poured into 50 mL centrifuge tubes and diluted with room temperature Dulbecco's Phosphate Buffered Saline (dPBS) with Calcium and Magnesium (Gibco). Diluted buffy coats were further divided into four total 50 mL centrifuge tubes at 20 mL per tube. Lymphocyte Separation Medium (Corning) was carefully pipetted to the bottom of each centrifuge tube. Mixtures were centrifuged at 850× g for 32 minutes at 20° C. with 0 deceleration and acceleration.
(§2) The PBMC layer was separated from other components after centrifugation and added to new 50 mL centrifuge tube containing 25 mL dPBS. Total volume was brought up to 50 mL with dPBS and centrifuged at 600× g for 10 minutes at 20° C. with acceleration of 9, deceleration of 5. Supernatant was carefully removed from cell pellets. The cell pellets were resuspended using 10 mL dPBS. Total volume was then brought up to 50 mL using dPBS and centrifuged at 450× g for 5 min at 20° C. with acceleration of 9, deceleration of 9. The supernatant removal and cell pellet resuspension was repeated again.
(§3) The supernatant was then carefully removed from cell pellets. Cell pellets were resuspended in 10 mL dPBS without calcium or magnesium and filtered through a 70 uM cell strainer. The total PBMC number was determined using a Cellometer K2 automated cell counter. A total of 5E6 cells were saved for flow cytometric analysis. Remaining cells were centrifuged at 490× g for 5 minutes at 20° C. with acceleration of 9, deceleration of 9.
(§4) CD14+ cells were selected using EasySep™ Human CD14 Positive Selection Kit II ([…] Technologies). Cells were resuspended in cold EasySep™ Buffer ([…] Technologies) at 1×10^8 cells/mL. A total of 100 uL/mL EasySep™ Human CD14 Positive Selection Cocktail II was added to the cell suspension, mixed, and incubated at room temperature for 10 minutes. A total of 100 uL/mL RapidSpheres were added to the mixture and incubated at room temperature for 3 minutes after mixing, then RoboSep buffer was added to bring up the total volume to 10 mL. The mixture in a 15 mL tube was placed in magnet and incubated at room temperature for 3 minutes. Supernatant was discarded and 10 mL fresh EasySep™ buffer was added to 15 mL tube. The addition of RoboSep buffer, mixing, and discarding of supernatant was repeated two more times.
(§5) Negative and positive fractions were centrifuged at 490× g for 5 minutes at 20° C. with acceleration of 9, deceleration of 9, and resuspended in DMEM (Gibco) and 10% Heat Inactivated Fetal Bovine Serum (Atlanta Bio) and Penicillin/Streptomycin. Cells were counted and centrifuged again at […] for 5 minutes at 20° C. with acceleration of 9, deceleration of 9. After centrifugation, cell were resuspended in DMEM (Gibco) and 10% Heat Inactivated Fetal Bovine Serum (Atlanta Bio) and Penicillin/Streptomycin containing 500 U/mL […] and plated at 1-2×10^6 cells/mL on 10 cm tissue culture plates. Cells were kept in 37° C., 5% CO2 in between feedings/harvest.
(§6) Cells were fed every 3-4 days by removing media and unattached cells, centrifuging at 490× g for 5 minutes at 20 C with acceleration of 9, deceleration of 9, and resuspending in fresh DMEM (Gibco) and 10% Heat Inactivated Fetal Bovine Serum (Atlanta Bio) and Penicillin/Streptomycin containing GM-CSF. Resuspended cells were seeded back onto 10 cm tissue culture plates and incubated at 37° C., 5% CO2. Differentiated macrophages were used for subsequent experiments.
(§7) Primary human PMBC derived macrophages were seeded on day 0 at 3.0E4 cells per well in 96-well microplates (ThermoFisher) in Dulbecco's Modified Eagle Medium (DMEM) (Gibco) supplemented with penicillin-streptomycin (Hyclone) and 10% heat inactivated fetal bovine serum (HI-FBS) (Atlanta Bio) and incubated overnight at 37° C., 5% CO2. On day 1, cells were washed once with 150 uL per well DPBS (Gibco) and treated with 75 uL of: • a. […]

TNFa = assay: LPS-induced TNFa secretion in primary human PBMC-derived macrophages (ELISA); assay type: cell-based; conditions: for TNFa Measurements Mean (baseline subtracted): LPS; for effect on LPS-induced TNFa secretion: in words
Experimental: as §1, §2, §3, §4, §5, §6, §7

SMILES: N=C(N)NCCC[C@H](N)C(=O)O [Arginine]
- IL-6 Measurements Mean (IL-6; Donor 1, Arginine Conc. 109 μM (baseline)): 0
- IL-6 Measurements Mean (IL-6; Donor 1, Arginine Conc. 1088 μM, baseline subtracted): −181.36
- IL-6 Measurements Mean (IL-6; Donor 1, Arginine Conc. 2720 μM, baseline subtracted): −186.57
- IL-6 Measurements Mean (IL-6; Donor 1, Arginine Conc. 5440 μM, baseline subtracted): 357.4394
- effect on LPS-induced IL-6 secretion (IL-6; Donor 1): increased
- IL-6 Measurements Mean (IL-6; Donor 2, Arginine Conc. 109 μM (baseline)): 2.37E−15
- IL-6 Measurements Mean (IL-6; Donor 2, Arginine Conc. 1088 μM, baseline subtracted): −9.701
- IL-6 Measurements Mean (IL-6; Donor 2, Arginine Conc. 2720 μM, baseline subtracted): −13.6102
- IL-6 Measurements Mean (IL-6; Donor 2, Arginine Conc. 5440 μM, baseline subtracted): −12.4164
- IL-6 Measurements Mean (IL-6; Donor 3, Arginine Conc. 109 μM (baseline)): 0
- IL-6 Measurements Mean (IL-6; Donor 3, Arginine Conc. 1088 μM, baseline subtracted): 31.5786
- IL-6 Measurements Mean (IL-6; Donor 3, Arginine Conc. 2720 μM, baseline subtracted): −7.503
- IL-6 Measurements Mean (IL-6; Donor 3, Arginine Conc. 5440 μM, baseline subtracted): −6.81
- TNFa Measurements Mean (baseline subtracted) (TNFa; Donor 1, Conc. 109 μM (baseline)): 0
- TNFa Measurements Mean (baseline subtracted) (TNFa; Donor 1, Conc. 1088 μM): −24.33
- TNFa Measurements Mean (baseline subtracted) (TNFa; Donor 1, Conc. 2720 μM): 5.12
- TNFa Measurements Mean (baseline subtracted) (TNFa; Donor 1, Conc. 5440 μM): 62.06
- TNFa Measurements Mean (baseline subtracted) (TNFa; Donor 2, Conc. 109 μM (baseline)): 1.42E−14
- TNFa Measurements Mean (baseline subtracted) (TNFa; Donor 2, Conc. 1088 μM): −12.7222
- TNFa Measurements Mean (baseline subtracted) (TNFa; Donor 2, Conc. 2720 μM): −3.763
- TNFa Measurements Mean (baseline subtracted) (TNFa; Donor 2, Conc. 5440 μM): −0.5738
- TNFa Measurements Mean (baseline subtracted) (TNFa; Donor 3, Conc. 109 μM (baseline)): 3.55E−15
- TNFa Measurements Mean (baseline subtracted) (TNFa; Donor 3, Conc. 1088 μM): 3.131
- TNFa Measurements Mean (baseline subtracted) (TNFa; Donor 3, Conc. 2720 μM): −0.9669
- TNFa Measurements Mean (baseline subtracted) (TNFa; Donor 3, Conc. 5440 μM): −1.767

SMILES: NC(=O)CC[C@H](N)C(=O)O [Glutamine]
- effect on LPS-induced IL-6 secretion (IL-6; Donor 1): increased
- effect on LPS-induced IL-6 secretion (IL-6; Donor 2): increased
- effect on LPS-induced IL-6 secretion (IL-6; Donor 3): significantly increased
- effect on LPS-induced TNFa secretion (TNFa; Donor 2): increased
- effect on LPS-induced TNFa secretion (TNFa; Donor 3): increased

SMILES: CC(=O)N[C@@H](CS)C(=O)O [N-Acetyl Cysteine, N-acetylcysteine]
- IL-6 Measurements Mean (IL-6; Donor 1, Conc. 0 X (baseline)): 0
- effect on LPS-induced IL-6 secretion (IL-6; Donor 1): significantly reduced
- IL-6 Measurements Mean (IL-6; Donor 2, Conc. 0 X (baseline)): −2.4E−15
- IL-6 Measurements Mean (IL-6; Donor 2, Conc. 20 X, baseline subtracted): −24.9999
- effect on LPS-induced IL-6 secretion (IL-6; Donor 2): significantly reduced
- IL-6 Measurements Mean (IL-6; Donor 3, Conc. 0 X (baseline)): −9.5E−15
- effect on LPS-induced IL-6 secretion (IL-6; Donor 3): significantly reduced
- effect on LPS-induced TNFa secretion (TNFa; Donor 1): significantly reduced
- effect on LPS-induced TNFa secretion (TNFa; Donor 2): significantly reduced
- effect on LPS-induced TNFa secretion (TNFa; Donor 3): significantly reduced
